Like-named read-outs stand apart in the source and are kept apart here.
Tests used:
[1] = tested on: E. coli with plasmid pGFP+luc*; format: cell-based, E. coli strain MC1061; conditions: 5 min
Procedure: Environ. Microbiol. 64: 515-519.
The measurements were done with a combined fluoro- and luminometer, Fluoroscan Ascent FL, provided by Labsystems Ltd. (Helsinki, Finland). Cell growth was simultaneously followed with a flow cytometer.
For the measurements, 100 μl of bacterial culture was pipetted into the microtiter plate wells. Fluorescence was measured using 485 nm for excitation and 510 nm for emission. Measuring time was 20 ms. After the fluorescence measurement 100 μl of luciferin in 0.1 M citric acid-sodium citrate buffer (pH 5.0) was dispensed into the wells and the plate was shaken for two minutes (shaking diameter 1 mm, 1 020 rpm), after which luminescence was recorded with a measuring time of 1000 ms.

[2] = tested on: E. coli with plasmid pGFP+luc*; conditions: with increased ethanol concentration, 5 min, FIG. 5
Procedure: (§1) One colony from a pure culture plate was inoculated in 5 ml of LB-medium with ampicillin (100 μg/ml) and grown at +37° C. in a shaker, 250 rpm, for about three hours. After that, the number of cells per milliliter was determined with flow cytometry by using fluorescent spherical latex particles as a reference. One million cells were then removed to an erlenmeyer with 50 ml of LB medium and ampicillin. The culture was grown over night in a shaker, 190 rpm, at room temperature to prevent the culture from growing into the stationary phase during the night. In the morning, the culture was transferred to and grown in a shaker, 330 rpm, until the stationary phase was reached or used after growth at +30° C. for about 1 h to study the influence of ethanol or serum complement as described below.
Ethanol (Aa, Primalco Oy) was diluted into pure water to obtain concentrations of 50, 45, 25, 10, 5, 1 and 0% of ethanol when 500 μl of said dilution was added to 500 μl of said culture in an eppendorf tube. The mixture was vortexed and incubated for 5 minutes before measuring fluorescence and luminescence. Live cells were again counted by plating and also by live/dead staining. […] After staining, cells are passed through a flow cytometer, with which dead and live cells can be differentiated and their proportion determined. […]

[3] = tested on: E. coli with plasmid pGFP+luc*; conditions: for death: incubation 5 min, 30° C., FIGS. 4 and 5 (plating and live/dead staining)
Procedure: as §1
Ethanol (Aa, Primalco Oy) was diluted into pure water to obtain concentrations of […], 25, 10, 5, 1 and 0% of ethanol when 500 μl of said dilution was added to 500 μl of said culture in an eppendorf tube. The mixture was vortexed and incubated for 5 minutes before measuring fluorescence and luminescence. Live cells were again counted by plating and also by live/dead staining. In the live/dead protocol used the stain cyto 9 stains all cells whereas propidium iodide stains only the dead cells. After staining, cells are passed through a flow cytometer, with which dead and live cells can be differentiated and their proportion determined. (Virta et al. (1998) Appl. Environ. Microbiol. 64: 515-519.)
The influence of serum complement on the said recombinant E. coli strain was studied using an incubation time of 90 min as described for a different recombinant E. coli strain used in Virta et al. (1998) Appl. Environ. Microbiol. 64: 515-519.
Samples for plating were diluted 10^2 to 10^7 fold with 150 mM NaCl and plated onto L agar plates (L broth containing 1.6% agar). Colonies were counted after overnight incubation at 37° C.

CCO [ethanol, Ethanol]
fluorescence ([1]; whatever the ethanol concentration (0-50%), FIG. 2): essentially constant
luminescence ([1]; with increased ethanol concentration, FIG. 3): dropped dramatically
percentage of live cells according to the live/dead staining [2]: dramatically decreasing
death ([3]; ethanol concentrations above 10%): very pronounced significance
death ([3]; ethanol concentrations below 5%): more or less unsignificant
live cell count according to plate count ([3]; with increased ethanol concentration, 5 min, FIG. 4): dramatically decreasing
